The series deals with mouse carcinogenicity bioassay, TD50 from CPDB. Put plainly: DSSTox (CPDBAS) Carcinogenic Potency Database Summary Mouse Bioassay Results. An outline of the steps: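 Values are TD50 carcinogenic potencies from mouse chronic bioassays, taking the most positive result for each sex-species. Sources are published literature and NCI/NTP studies; target sites reflect author-reported positive findings.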

Setting [1] is: TD50_Mouse_Note: no positive results, TargetSites_Mouse_Female: no positive results.
[2] abbreviates: TD50_Mouse_Note: TD50 is harmonic mean of more than one positive test, greater than ten-fold variation among TD50 values for positive res, TargetSites_Mouse_Female: liver.

The source made the active and inactive calls.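 How the source made its calls: active means a tumour-causing dose and a tumour site recorded for mice in at least one sex group; inconclusive means only government mouse studies exist and were judged inadequate; inactive means mouse studies exist but none gave tumours.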

Potency and outcome data for 23 compounds are collected here from PubChem BioAssay AID1199 (EPA DSSTox, 2008).

With `CCC1NC(=O)C2C(Cl)C(Cl)CN2C(=O)C(CO)NC(=O)CC(c2ccccc2)NC(=O)C(CO)NC1=O` (stereo not drawn), the Potency is 0.0412 mmol/kg/day.

As for `CC(=O)OC/C=C(\C)CCC=C(C)C`, under setting [1], the outcome was “inactive; no positive results”.

Consider `Cc1ccc2c(c1[N+](=O)[O-])C(=O)c1ccccc1C2=O`, for which the Potency (TD50_Mouse_Note: TD50 is harmonic mean of more than one positive test, TargetSites_Mouse_Female: vascular system) was 0.00584 mmol/kg/day.

Regarding `CCCOC(=O)c1cc(O)c(O)c(O)c1`, under setting [1], the outcome was “inactive; no positive results”.

`CC(=O)OC1CC(C)OC(C)O1` (stereo not drawn): the outcome under setting [1] is “inactive; no positive results”.

For the compound `c1ccc(C2CO2)cc1` (stereo not drawn), where the note is “TD50_Mouse_Note: TD50 is harmonic mean of more than one positive test, TargetSites_Mouse_Female: stomach”, the Potency is 0.982 mmol/kg/day.

On to `COc1cc(/C=C/C(=O)O[C@H]2CC[C@]34C[C@]35CC[C@]3(C)[C@@H]([C@H](C)CCC=C(C)C)CC[C@@]3(C)[C@@H]5CC[C@H]4C2(C)C)ccc1O`, for which, under setting [1], the outcome was “inactive; no positive results”.

Consider `CCOC(=O)C(O)(c1ccc(Cl)cc1)c1ccc(Cl)cc1`, for which the Potency under setting [2] was 0.289 mmol/kg/day.

Consider `C[C@H](CCC(=O)O)[C@H]1CC[C@H]2[C@@H]3[C@H](O)C[C@@H]4C[C@H](O)CC[C@]4(C)[C@H]3CC[C@]12C`, for which the outcome (TargetSites_Mouse_BothSexes: no positive results) was inactive.

For `O=C1C(Cl)=C(Cl)C(=O)C(Cl)=C1Cl`, the outcome under setting [1] is “inactive; no positive results”.

Consider `CC(C)OC(=O)Nc1ccccc1`, for which the outcome under setting [1] was “inactive; no positive results”.

As for `ClC1=C(Cl)[C@@]2(Cl)[C@@H]3[C@@H](Cl)[C@H](Cl)C[C@@H]3C1(Cl)C2(Cl)Cl`, under setting [2], the Potency was 0.00334 mmol/kg/day.

Turning to `OCC1CO1` (stereo not drawn), the Potency (TD50_Mouse_Note: TD50 is harmonic mean of more than one positive test, TargetSites_Mouse_Female: harderian gland, mammary gland, skin, subcutaneous tissue, uterus) is 0.468 mmol/kg/day.

On to `CCCCOC(=O)COc1ccc(Cl)cc1Cl`, for which, under setting [1], the outcome was “inactive; no positive results”.

Regarding `NNCCO`, the Potency (TD50_Mouse_Note: TD50 is harmonic mean of more than one positive test, TargetSites_Mouse_Female: no positive results) is 0.00522 mmol/kg/day.

As for `C/C1=C\C=C(\C(C)C)[C@@H](O)C/C(C)=C/CC/C(C)=C/CC1`, the outcome (TD50_Mouse_Note: no positive results) was “inactive; no positive results”.

With `CCC1(c2ccccc2)C(=O)NC(=O)NC1=O`, the Potency (TD50_Mouse_Note: TD50 is harmonic mean of more than one positive test, harmonic mean of TD50 includes a value for upper 99% confidence li, TargetSites_Mouse_Female: liver) is 0.0317 mmol/kg/day.

For `Cc1ccc2c(-c3ccccc3)nc(=O)n(C(C)C)c2c1`, the outcome under setting [1] is “inactive; no positive results”.

With `CCCCCC(N)=O`, the Potency (TargetSites_Mouse_Female: no positive results) is 16.9 mmol/kg/day.

For `CCS(=O)(=O)c1ccc(S(N)(=O)=O)c2ccccc12`, where the note is “TD50_Mouse_Note: TD50 is harmonic mean of more than one positive test, TargetSites_Mouse_Female: urinary bladder”, the Potency was 0.0705 mmol/kg/day.

On to `Nc1ccccc1C(=O)OC/C=C/c1ccccc1`, for which, where the note is “TD50_Mouse_Note: TD50 is harmonic mean of more than one positive test, TargetSites_Mouse_Female: liver”, the Potency is 10.2 mmol/kg/day.

Take `Clc1ccccc1`: under setting [1], the outcome is “inactive; no positive results”.

With `O=P1(NCCCl)OCCCN1CCCl` (stereo not drawn), the Potency (TD50_Mouse_Note: positive test results only by intraperitoneal or intravenous injection, TargetSites_Mouse_Female: hematopoietic system) is 0.0194 mmol/kg/day.
